Among the data in patent US9518060B2, “Substituted pyrrolo[3,4-c]pyrazoles as PKC kinase inhibitors” (PFIZER INC., priority 2007, dated 2016) are Ki values, retold here.

The structures appear in SMILES notation. Counter-ions that a name gives are not always drawn.

In this experiment the target is Protein Kinase C beta 2 (PKCβII) (Homo sapiens (Human), UniProt P05771). The experiment is described as follows: PKCβII coupled spectrophotometric kinase assay (PK/LDH, NADH absorbance at 340 nm). The following applies: apparent Ki, ATP competitive inhibition model (Morrison equation); 0.1 mM ATP, 5 nM PKC, 30° C.; read-out: Ki app. The experiment is classed as biochemical. As for the experimental part: Protein Kinase C beta 2 (PKCβII) catalyzes the production of ADP from ATP that accompanies the phosphoryl transfer to the PKC Pseudosubstrate peptide (A→S, RFARKGSLRQKNV). This transfer is coupled to the oxidation of β-NADH through the activities of Pyruvate Kinase (PK) and Lactate Dehydrogenase (LDH). β-NADH conversion to NAD+ is monitored by the decrease in absorbance at 340 nm (e=6.22 cm^−1 mM^−1) using a Molecular Devices SPECTRA max PLUS spectrophotometer.
Protein Kinase C beta 2 (PKCβII), sequence (P05771 other isoform, or with tags, fused parts or gaps): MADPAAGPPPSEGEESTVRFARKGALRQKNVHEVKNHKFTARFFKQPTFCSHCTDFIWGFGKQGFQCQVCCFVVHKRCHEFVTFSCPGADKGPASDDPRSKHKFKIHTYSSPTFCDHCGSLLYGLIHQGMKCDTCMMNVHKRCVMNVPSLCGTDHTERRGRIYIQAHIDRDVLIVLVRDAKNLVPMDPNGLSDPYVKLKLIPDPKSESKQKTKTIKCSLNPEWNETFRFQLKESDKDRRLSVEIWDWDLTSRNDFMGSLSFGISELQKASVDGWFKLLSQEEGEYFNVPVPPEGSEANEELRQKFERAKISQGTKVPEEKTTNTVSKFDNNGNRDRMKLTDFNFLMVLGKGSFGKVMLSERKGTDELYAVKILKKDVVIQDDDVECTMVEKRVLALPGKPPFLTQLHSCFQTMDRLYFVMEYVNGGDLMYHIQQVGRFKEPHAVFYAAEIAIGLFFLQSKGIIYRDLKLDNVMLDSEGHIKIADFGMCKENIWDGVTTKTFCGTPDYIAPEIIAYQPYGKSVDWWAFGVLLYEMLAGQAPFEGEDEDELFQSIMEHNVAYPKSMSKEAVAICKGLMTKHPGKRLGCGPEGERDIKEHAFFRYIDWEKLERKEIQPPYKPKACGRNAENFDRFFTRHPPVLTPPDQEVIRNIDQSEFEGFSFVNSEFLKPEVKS
A typical assay was carried out on a 96-well, clear microtiter plate in a Molecular Devices spectrophotometer for 20 minutes at 30° C. in 0.1 mL of assay buffer containing 50 mM HEPES, pH 7.4, 5 nM PKC, 23 units of pyruvate kinase, 33 units of lactate dehydrogenase, 0.15 mM peptide, 0.1 mM ATP, 1 mM DTT, 4 mM PEP, 8 mM MgCl2, 0.3 mM NADH, 60 mM CaCl2, 10 mg/mL PS, 50 ng/mL PMA, 7.5% DMSO and from about 10,000 nM to 0.169 nM compound inhibitor. Stock solutions of 3-sn-phosphatidyl-L-serine (PS) and phorbol-12-myristate-13-acetate (PMA) were sonicated for 30 seconds just prior to addition to assay buffer and assays were initiated by the addition of 100 μM ATP.
Steady-state kinetic parameters for the bi-bi kinase reaction were determined at saturating phospho-acceptor peptide substrate concentration (0.15 mM) by fitting initial velocity data to the Michaelis-Menten equation, v=Vmax[S]/(KM+[S]) where v is the measured initial velocity, Vmax is the maximal enzyme velocity, [S] is the ATP substrate concentration, and KM is the Michealis constant for ATP. Enzyme turnover values (kcat) were calculated according to […], where [E] is the total enzyme concentration. Enzyme inhibition constants (apparent Ki values) were determined by fitting initial velocities at variable inhibitor concentrations to a model for ATP competitive inhibition based on the Morrison equation). Morrison, J. F., Biochim. Biophys Acta 185: 269-286 (1969).
As for `CCNc1nccc(Nc2n[nH]c3c2CN(C(=O)N2CC(C)(C)N(C)C[C@@H]2C)C3(C)C)n1` [Example A8, N^4-(6,6-dimethyl-5-{[(2S)-2,4,5,5-tetramethylpiperazin-1-yl]carbonyl}-1,4,5,6-tetrahydropyrrolo[3,4-c]pyrazol-3-yl)-N^2-ethylpyrimidine-2,4-diamine], the Ki is 0.00339 µM.

On to `Cc1ncc(F)c(Nc2n[nH]c3c2CN(C(=O)N2C[C@H](C)N(C)C[C@@H]2C)C3(C)C)n1` [AA4, 2(S),5(S)-{[dimethyl-4-methylpiperazin-1-yl]carbonyl}-N-(5-fluoro-2-methylpyrimidin-4-yl)-6,6-dimethyl-1,4,5,6-tetrahydropyrrolo[3,4-c]pyrazol-3-amine], for which the Ki was found to be 0.147 µM.

In the case of `COCCCOc1ncc(F)c(Nc2n[nH]c3c2CN(C(=O)N2CC(C)(C)N(C)C[C@@H]2C)C3(C)C)n1` [Example K9, N-[5-fluoro-2-(3-methoxypropoxy)pyrimidin-4-yl]-6,6-dimethyl-5-{[(2S)-2,4,5,5-tetramethylpiperazin-1-yl]carbonyl}-1,4,5,6-tetrahydropyrrolo[3,4-c]pyrazol-3-amine], the Ki came to 0.0128 µM.

As for `COCCOc1ncc(F)c(Nc2n[nH]c3c2CN(C(=O)N2C[C@@H](C)N(C)C[C@@H]2C)C3(C)C)n1` [Example K12, N-[5-fluoro-2-(2-methoxyethoxy)pyrimidin-4-yl]-6,6-dimethyl-5-{[(2S,5R)-2,4,5-trimethylpiperazin-1-yl]carbonyl}-1,4,5,6-tetrahydropyrrolo[3,4-c]pyrazol-3-amine], the Ki came out at 0.0152 µM.

Consider `Cc1ncc(F)c(Nc2n[nH]c3c2CN(C(=O)N2C[C@@H]4CCCN4C[C@@H]2C)C3(C)C)n1` [Example H1, N-(5-fluoro-2-methylpyrimidin-4-yl)-6,6-dimethyl-5-{[(3S,8aS)-3-methylhexahydropyrrolo[1,2-a]pyrazin-2(1H)-yl]carbonyl}-1,4,5,6-tetrahydropyrrolo[3,4-c]pyrazol-3-amine], for which the Ki came to 0.0398 µM.

In the case of `CCNc1ncc(F)c(Nc2n[nH]c3c2CN(C(=O)N2C[C@@H](C)N(C)C[C@@H]2C)C3(C)C)n1` [Example B3, N^4-(6,6-dimethyl-5-{[(2S,5R)-2,4,5-trimethylpiperazin-1-yl]carbonyl}-1,4,5,6-tetrahydropyrrolo[3,4-c]pyrazol-3-yl)-N^2-ethyl-5-fluoropyrimidine-2,4-diamine], the Ki was determined as 0.00203 µM.

As to `CCOc1ncc(F)c(Nc2n[nH]c3c2CN(C(=O)N2C[C@@H](C)N(CC4(O)CCOCC4)C[C@@H]2C)C3(C)C)n1` [Example K22, 4-[((2R,5S)-4-{[3-[(2-ethoxy-5-fluoropyrimidin-4-yl)amino]-6,6-dimethyl-4,6-dihydropyrrolo[3,4-c]pyrazol-5(1H)-yl]carbonyl}-2,5-dimethylpiperazin-1-yl)methyl]tetrahydro-2H-pyran-4-ol], the Ki was 0.0153 µM.

With `Cc1ccc(F)c(Nc2n[nH]c3c2CN(C(=O)N2C[C@@H](C)N(C)C[C@@H]2C)C3(C)C)n1` [Example J3, N-(3-fluoro-6-methylpyridin-2-yl)-6,6-dimethyl-5-{[(2S,5R)-2,4,5-trimethylpiperazin-1-yl]carbonyl}-1,4,5,6-tetrahydropyrrolo[3,4-c]pyrazol-3-amine], the Ki was 0.00263 µM.

`CC(C)CNc1ncc(F)c(Nc2n[nH]c3c2CN(C(=O)N2CC(C)(C)N(C)C[C@@H]2C)C3(C)C)n1` [Example A4, N^4-(6,6-dimethyl-5-{[(2S)-2,4,5,5-tetramethylpiperazin-1-yl]carbonyl}-1,4,5,6-, tetrahydropyrrolo[3,4-c]pyrazol-3-yl)-5-fluoro-N^2-isobutylpyrimidine-2,4-diamine acetate salt]: the Ki worked out at 0.0376 µM.

On to `CCOc1ncc(F)c(Nc2n[nH]c3c2CN(C(=O)N2C[C@@H](C)N(C4CCOCC4)C[C@@H]2C)C3(C)C)n1` [Example K21, 5-{[(2S,5R)-2,5-dimethyl-4-(tetrahydro-2H-pyran-4-yl)piperazin-1-yl]carbonyl}-N-(2-ethoxy-5-fluoropyrimidin-4-yl)-6,6-dimethyl-1,4,5,6-tetrahydropyrrolo[3,4-c]pyrazol-3-amine], for which the Ki is below 0.01 µM.

For `CCNc1ncc(F)c(Nc2n[nH]c3c2CN(C(=O)N2C[C@@H](C)N(CC4CCOCC4)C[C@@H]2C)C3(C)C)n1` [Example A11, N^4-(5-{[(2S,5R)-2,5-dimethyl-4-(tetrahydro-2H-pyran-4-ylmethyl)piperazin-1-yl]carbonyl}-6,6-dimethyl-1,4,5,6-tetrahydropyrrolo[3,4-c]pyrazol-3-yl)-N^2-ethyl-5-fluoropyrimidine-2,4-diamine], the Ki is below 0.01 µM.

`Cc1cc(C)nc(Nc2n[nH]c3c2CN(C(=O)N2C[C@@H](C)N(CC4CCOCC4)C[C@@H]2C)C3(C)C)n1` [Example J16, N-(4,6-dimethylpyrimidin-2-yl)-5-{[(2S,5R)-2,5-dimethyl-4-(tetrahydro-2H-pyran-4-ylmethyl)piperazin-1-yl]carbonyl}-6,6-dimethyl-1,4,5,6-tetrahydropyrrolo[3,4-c]pyrazol-3-amine]: the Ki was 0.0111 µM.

For `COCCCN1C[C@H](C)N(C(=O)N2Cc3c(Nc4nc(OCC(F)(F)F)ncc4F)n[nH]c3C2(C)C)C[C@H]1C` [Example K6, N-[5-fluoro-2-(2,2,2-trifluoroethoxy)pyrimidin-4-yl]-5-{[(2S,5R)-4-(3-methoxypropyl)-2,5-dimethylpiperazin-1-yl]carbonyl}-6,6-dimethyl-1,4,5,6-tetrahydropyrrolo[3,4-c]pyrazol-3-amine], the Ki worked out at 0.000376 µM.

In the case of `Cc1ncc(F)c(Nc2n[nH]c3c2CN(C(=O)N2CC(C)(C)N(C)C[C@@H]2C)C3(C)C)n1` [Example H3, N-(5-fluoro-2-methylpyrimidin-4-yl)-6,6-dimethyl-5-{[(2S)-2,4,5,5-tetramethylpiperazin-1-yl]carbonyl}-1,4,5,6-tetrahydropyrrolo[3,4-c]pyrazol-3-amine], the Ki came out at 0.00721 µM.

Consider `CCOc1ncc(F)c(Nc2n[nH]c3c2CN(C(=O)N2C[C@H](C)N(C)C[C@@H]2C)C3(C)C)n1` [Example K13, 2(S),5(S)-{[dimethyl-4-methylpiperazin-1-yl]carbonyl}-N-(5-fluoro-2-ethoxypyrimidin-4-yl)-6,6-dimethyl-1,4,5,6-tetrahydropyrrolo[3,4-c]pyrazol-3-amine], for which the Ki amounted to 0.0265 µM.

As to `COc1ccnc(Nc2n[nH]c3c2CN(C(=O)N2C[C@@H](C)N(C4CCOCC4)C[C@@H]2C)C3(C)C)n1` [Example J11, 5-{[(2S,5R)-2,5-dimethyl-4-(tetrahydro-2H-pyran-4-yl)piperazin-1-yl]carbonyl}-N-(4-methoxypyrimidin-2-yl)-6,6-dimethyl-1,4,5,6-tetrahydropyrrolo[3,4-c]pyrazol-3-amine], the Ki is below 0.01 µM.

Regarding `COCc1ncc(F)c(Nc2n[nH]c3c2CN(C(=O)N2C[C@@H](C)N(CC4CCOCC4)C[C@@H]2C)C3(C)C)n1` [Example N1, 5-{[(2S,5R)-2,5-dimethyl-4-(tetrahydro-2H-pyran-4-ylmethyl)piperazin-1-yl]carbonyl}-N-[5-fluoro-2-(methoxymethyl)pyrimidin-4-yl]-6,6-dimethyl-1,4,5,6-tetrahydropyrrolo[3,4-c]pyrazol-3-amine], the Ki is below 0.01 µM.

`COCc1ncc(F)c(Nc2n[nH]c3c2CN(C(=O)N2CC(C)(C)N(C)C[C@@H]2C)C3(C)C)n1` [Example J9, N-[5-fluoro-2-(methoxymethyl)pyrimidin-4-yl]-6,6-dimethyl-5-{[(2S)-2,4,5,5-tetramethylpiperazin-1-yl]carbonyl}-1,4,5,6-tetrahydropyrrolo[3,4-c]pyrazol-3-amine]: the Ki came out at 0.0021 µM.

For the compound `Cc1ccc(F)c(Nc2n[nH]c3c2CN(C(=O)N2C[C@]4(C)CCCN4C[C@@H]2C)C3(C)C)n1` [Example J4, 5-{[(3S,8aS)-3,8a-dimethylhexahydropyrrolo[1,2-a]pyrazin-2(1H)-yl]carbonyl}-N-(3-fluoro-6-methylpyridin-2-yl)-6,6-dimethyl-1,4,5,6-tetrahydropyrrolo[3,4-c]pyrazol-3-amine], the Ki amounted to 0.00864 µM.

`CCOc1ncc(F)c(Nc2n[nH]c3c2CN(C(=O)N2CCN(C)[C@H](C)C2)C3(C)C)n1` [Example K17, 5-{[(3R)-3,4-dimethylpiperazin-1-yl]carbonyl}-N-(2-ethoxy-5-fluoropyrimidin-4-yl)-6,6-dimethyl-1,4,5,6-tetrahydropyrrolo[3,4-c]pyrazol-3-amine]: the Ki came to 0.0444 µM.

As for `CCNc1ncc(F)c(Nc2n[nH]c3c2CN(C(=O)C2(F)CCN(C)CC2)C3(C)C)n1` [Example C1, N^2-ethyl-5-fluoro-N^4-{5-[(4-fluoro-1-methylpiperidin-4-yl)carbonyl]-6,6-dimethyl-1,4,5,6-tetrahydropyrrolo[3,4-c]pyrazol-3-yl}pyrimidine-2,4-diamine], the Ki was found to be 0.0334 µM.
